Converted amounts (≈) assume the structure as drawn. The source made the active and inactive calls. The rule behind the calls is not given here.
What was measured:
Listeria monocytogenes = test: Antibacterial activity against Listeria monocytogenes EGD incubated for 16 to 24 hrs by broth microdilution method; assay type: functional; conditions: time 16-24 hrs
Acinetobacter baumannii = test: Bactericidal activity against Acinetobacter baumannii ATCC 17978; assay type: functional
Staphylococcus aureus [1] = test: Bacteriostatic activity against methicillin-resistant Staphylococcus aureus USA300 at 1 to 2 times MIC measured upto 24 hrs by time-kill assay; assay type: functional, organism-based
Staphylococcus aureus [2] = test: Induction of cell permeability in Staphylococcus aureus USA300 upto 0.13 uM by PI dye based analysis; assay type: functional, organism-based
Staphylococcus aureus [3] = test: Effect on lysine degradation in Staphylococcus aureus USA300 at 4 times MIC by KEGG analysis; assay type: functional, organism-based

CCn1c(=O)c(C(=O)Nc2nnc(-c3ccc(C)cn3)s2)c(O)c2ccccc21
MIC (Listeria monocytogenes): 0.02 µg/mL (≈ 0.0491 µM) | MBC (Acinetobacter baumannii): > 512 µg/mL | Activity (Staphylococcus aureus [1]): Active | Activity (Staphylococcus aureus [2]): Active | Activity (Staphylococcus aureus [3]): Active

From ChEMBL document CHEMBL6121054, “Discovery of Metabolic Reprogramming 2-Quinolones as Effective Antimicrobials for MRSA-Infected Wound Therapy” (J Med Chem, 2025)
